Earlier results as cited in PMC8812516 (Proceedings of the National Academy of Sciences of the …, 2022).

System: Shaker-IR channel

## charybdotoxin
  effect of inactivation on affinity of toxins: inactivation does not alter the affinity of toxins for that channel
